Consider 2 compounds from patent US8802691B2 (priority 2009, dated 2014).

Like-named read-outs stand apart in the source and are kept apart here. Where only a bound is given, the exact number is not on record here.

Series [1] deals with canine Leishmaniosis. To be noted: conventional treatments monitored by serology, bibliography, cited from earlier work.
Another series deals with Leishmania infantum. Briefly: Circulating monocyte-derived macrophages from treated healthy dogs, in vitro infection with Leishmania infantum promastigotes. It counts as cell-based. The source says: It is designed as a prospective monocentric study. A total of 10 dogs have been included, each of them acting as its own control, for which reason it has not been considered necessary the use of a negative control. […] During the study several visits are paid the days 0 (basal), 15 and 30 of treatment, and days 60 and 90 (one and two months after finishing the treatment, respectively). During each visit blood is collected from animals and it is processed to isolate and culture monocytes-macrophages, which are then co-cultivated with Leishmania promastigotes. After 48 hours the nitroblue tetrazolium (NBT) reduction test is carried out on the cultures and the percentage of parasited macrophages and the number of amastigotes per macrophage were measured. Blood samples are also collected on days 0 and 90 to assess animal health by biochemical and haemathological analyses.

Series [2] has as its system canine Leishmaniosis. Briefly: Controlled study of a domperidone treatment plan in seronegative dogs in an endemic area (Example 5). Type of series: in vivo, dog. Conditions: treated group n = 120, two 30-day treatments at 0.5 mg/kg/day oral. From the text: The study lasted for 9 months, beginning at the onset of the activity period of the vector insect in the geographical area in which animals were found and closing three months after the end of this period. The presence of the vector was confirmed before starting the treatment.
The remaining 120 animals received a placebo under an equivalent dosage regime.

For a further series, the system named is L. Infantum. To be noted: 2 mg/kg/day, dogs infected with L. Infantum, ES 2246142; cited from earlier work.
In a further series the test system is prolactine hormone. To be noted: for Tmax of prolactine (time to maximum prolactine concentration), mean: male dog, serum. As to the method: During each of the 7 phases blood samples were extracted at different times (t=0 h, 0.5 h, 1 h, 2 h, 4 h, 6 h, 8 h, 10 h, 12 h, 18 h, 36 y 48 h) for determining serum concentrations of prolactine using a commercial immuno enzymatic assay kit.

Series [3] relates to canine Leishmaniosis.
The subject of the next series is monocytes. Briefly: NBT reduction test in whole blood of healthy dogs: activated monocytes. Type of series: in vivo, dog. On the procedure:
(§1) 20 dogs of different breed, sex and age, were randomly distributed into two groups of 10. […] During the study several visits were paid (days 0, 15, 30, 60 and 90) during which some clinical examinations were done and blood samples were collected for biochemical, haemathological and serological analyses (DAT). The percentages of activated monocytes and neutrophils were determined in whole blood samples through the nitroblue tetrazolium (NBT) reduction test.

The test system of series [4] is canine Leishmaniosis. Briefly: Clinical study of Domperidone alone in dogs with initial stage Leishmaniosis (Example 6). Conditions: for percentage of dogs with antibody titre lower than DAY 0: oral 1 mg/kg/12 h (<30 kg) or 0.7 mg/kg/12 h for 30 days, 70 dogs. It counts as in vivo, dog. As to the method: A clinical study was performed including a group of 70 dogs with an initial stage of Leishmaniosis (antibody titre against Leishmania between 1/800 and 1/1600-threshold of positively 1/800-and oligosymptomatics).
[…] During said controls different immunological (antibody titre against Leishmania-DAT, intradermoreaction test-Leishmanina), clinical (clinical symptoms, body weight) and analytical (biochemical profile, haematology, proteinogram and urine test for the determination of UPC ratio) parameters were assessed.

Another series relates to neutrophils. Put plainly: NBT reduction test in whole blood of healthy dogs: activated neutrophils. Type of series: in vivo, dog. As to the method: as §1
[5] abbreviates: sample of Day 0 (basal), dogs given 0.5 mg/kg/day oral for 30 days.
[6] abbreviates: sample of Day 15, dogs given 0.5 mg/kg/day oral for 30 days.
Where [7] appears, read: sample of Day 30, dogs given 0.5 mg/kg/day oral for 30 days.
Setting [8] is: sample of Day 60 (one month after end of treatment).
The mark [9] stands for this setting: sample of Day 90 (two months after end of treatment).
Setting [10] is: Day 0 (before treatment), 0.5 mg/kg/day oral for 30 days, healthy dogs n = 10.
Where [11] appears, read: Day 15, 0.5 mg/kg/day oral for 30 days, healthy dogs n = 10.
The mark [12] stands for this setting: Day 30, 0.5 mg/kg/day oral for 30 days, healthy dogs n = 10.
Setting [13] is: Day 90 (60 days after end of treatment), 0.5 mg/kg/day oral for 30 days.

For the compound `Oc1ncnc2[nH]ncc12` [Alopurinol], the “time after onset of treatment until decrease in the antibody titre against Leishmania is observed” value is at least 180 days with canine Leishmaniosis [1] and 180 days in the series on canine Leishmaniosis [1] (listed as alopurinol).
Take `O=c1[nH]c2ccccc2n1CCCN1CCC(n2c(=O)[nH]c3cc(Cl)ccc32)CC1` [Domperidone]: the “number of amastigotes per macrophage after 48 hours of in vitro co-culture with Leishmania infantum promastigotes, mean” value was found to be 44.4 in the series with Leishmania infantum (setting [5]); 9.7 in the series with Leishmania infantum (setting [6]); 11.3 in the series with Leishmania infantum (setting [7]); 23.1 in the series on Leishmania infantum (setting [8]); 42.6 with Leishmania infantum (setting [9]). The “percentage of positive NBT macrophages after 48 hours of co-culture with Leishmania infantum promastigotes, mean” value turned out to be 2.00% with Leishmania infantum (setting [5]); 61.10% with Leishmania infantum (setting [6]); 62.20% in the series with Leishmania infantum (setting [7]); 1.70% in the series with Leishmania infantum (setting [8]); 1.80% in the series with Leishmania infantum (setting [9]). Also, the entries for the “percentage of macrophages infected after 48 hours of in vitro culture with Leishmania infantum promastigotes, mean” value in the series on Leishmania infantum (setting [8]) and in the series with Leishmania infantum (setting [9]) were 82.6% and 89.5%, respectively. Moreover, the “animals with seropositivity against Leishmania (DAT≧1/400) at the end of the study” value in the series with canine Leishmaniosis [2] is 0%. Moreover, the “animals showing clinical symptoms indicative of adverse reactions attributable to the medication” value with canine Leishmaniosis [2] (9 months) was “None”. Besides, the “Animals WITH signs of canine Leishmaniosis, accumulated percentage” value came to 0% with canine Leishmaniosis [2] (end of study (9th month)); 11% in the series on canine Leishmaniosis [3] (0.5 mg/kg, 720 h); 11% with canine Leishmaniosis [3] (treated group n = 45, 0.5 mg/kg/day for 30 days each four months, end of study (second year), highly endemic area). Moreover, the “Animals WITHOUT signs of canine Leishmaniosis, accumulated percentage” value is on record as 100% with canine Leishmaniosis [2] (end of study (9th month)) and 85% with canine Leishmaniosis [3] (0.5 mg/kg, 720 h). Also, in the series with L. Infantum, the “effect on clinical signs of Leishmaniosis and level of antibodies” value is given as “able to reduce the clinical signs of Leishmaniosis and/or to reduce the level of antibodies in infected animals”. Also, the “average concentrations of prolactine in the first 36 hours after administration versus placebo” value in the series on prolactine hormone (all six dosages 0.125-4 mg/kg, single oral dose) is “remained above the prolactine concentration in the group treated with the placebo”. Besides, the “Tmax of prolactine (time to maximum prolactine concentration), mean” value in the series on prolactine hormone (single oral dose 0.125 mg/kg) worked out at 8.6 h; with prolactine hormone (single oral dose 0.250 mg/kg) it was 7.2 h; in the series with prolactine hormone (single oral dose 0.5 mg/kg), 3.7 h; in the series on prolactine hormone (single oral dose 1 mg/kg) it was 2.7 h; in the series on prolactine hormone (single oral dose 2 mg/kg) it was 5.0 h; in the series on prolactine hormone (single oral dose 4 mg/kg), 4.6 h. Also, the “percentage of activated monocytes, mean” value was determined as 3.200% with monocytes (setting [10]); 26.10% in the series with monocytes (setting [11]); 26.40% in the series with monocytes (setting [12]); 8.600% in the series on monocytes (Day 60 (30 days after end of treatment), 0.5 mg/kg/day oral for 30 days); 3.100% with monocytes (setting [13]). Besides, the “percentage of dogs with antibody titre lower than DAY 0” value in the series on canine Leishmaniosis [4] (DAY 30) is 10%; in the series on canine Leishmaniosis [4] (DAY 90), 47%; in the series on canine Leishmaniosis [4] (DAY 180), 57%. For the same compound, the “animals with total disappearance of clinical symptoms (mainly lymphadenopathy)” value in the series on canine Leishmaniosis [4] (in the course of the 12 months after the onset of the treatment) was determined as 100%. The “percentage of activated neutrophils, mean” value is 5.700% in the series on neutrophils (setting [10]), 38.50% with neutrophils (setting [11]), 40.00% with neutrophils (setting [12]) and 5.900% with neutrophils (setting [13]).
